Source: paper PMC8291587, “Guanidine Derivatives: How Simple Structural Modification of Histamine H3R Antagonists Has Led to the Discovery of Potent Muscarinic M2R/M4R Antagonists” (ACS Chemical Neuroscience, 2021)

Tests used:
[1] = target: T1, muscarinic M2R (Homo sapiens, UniProt P08172); experiment: Intracellular Ca2+ measurement, functional response to ACh, M2R in CHO cells; type: cell-based
T1 construct: host or cells: CHO cells (whole cells, Fura-2)
T1 sequence (P08172 1-466): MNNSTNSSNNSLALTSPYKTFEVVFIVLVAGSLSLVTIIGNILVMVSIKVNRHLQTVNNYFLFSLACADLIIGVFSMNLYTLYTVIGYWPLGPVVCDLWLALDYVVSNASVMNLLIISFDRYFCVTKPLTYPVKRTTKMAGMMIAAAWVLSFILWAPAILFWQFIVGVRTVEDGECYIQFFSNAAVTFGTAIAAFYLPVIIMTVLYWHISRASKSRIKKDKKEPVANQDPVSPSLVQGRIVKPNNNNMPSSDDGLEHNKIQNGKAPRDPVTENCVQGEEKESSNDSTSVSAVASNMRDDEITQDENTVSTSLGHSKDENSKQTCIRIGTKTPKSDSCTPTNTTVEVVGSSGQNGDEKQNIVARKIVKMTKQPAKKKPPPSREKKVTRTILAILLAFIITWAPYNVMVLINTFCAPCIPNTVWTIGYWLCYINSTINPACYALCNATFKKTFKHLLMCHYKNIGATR
Protocol: (§1) Linear Schild plot indicates the competitive interaction (slope = 1) of the tested compound (Supporting Information, Figure S55).
(§2) Intracellular Ca^2+ level was taken as a functional response to ACh. Black 96-well plates were seeded with 12,000 CHO cells per well. After two days of cultivation in DMEM at 37 °C under a humidified atmosphere containing 5% CO2, cells were washed with Krebs-HEPES buffer (KHB) (composition: (mM) NaCl (138), KCl (4), CaCl2 (1.3), MgCl2 (1), NaH2PO4 (1.2), HEPES (20), glucose (10), pH adjusted to 7.4) KHB was loaded with 5 μM Fura-2 (Sigma-Aldrich) for 1 h. The cells were washed with fresh KHB and preincubated with tested compounds for 1 h. Then plates were placed in a Cytation 3 reader. The first basal level (fluorescence dual excitation at 340 and 380 nm, emission at 510 nm) was measured. Following this, ACh was added to the desired concentration (ranging from 10 pM to 100 μM) by instrument injectors, and fluorescence was measured immediately. Intracellular Ca^2+ level was calculated as a ratio of 340 to 380 nm excitation fluorescence. […]
(§3) The intracellular level of calcium at various concentrations of ACh was measured. […] From a series of EC50 values of apparent inhibition constant KB was calculated by fitting eq 5 to dose ratio (DR) induced by tested compound at a given concentration: [drawing 5] […]

[2] = tested on: H3R; experiment: H3R agonism check with thioperamide on electrically stimulated guinea pig ileum; settings: thioperamide as H3R antagonist
Protocol: A standard ex vivo assay based on the relaxant response of histamine H3R agonists to electrically driven guinea pig ileum was used to test the influence of ADS compounds on the reduction of electrically evoked tissue contraction. […] The −log EC50 value for RAMH and ADS compounds were evaluated. […] Following this, we decided to evaluate the ADS series as potential M2R/M3R ligands on the isolated guinea pig ileum.
Male guinea pigs, weighing 300–400 g, were euthanized by a blow to the neck. A 20–30 cm length of the distal ileum, apart from the terminal 5 cm, was rapidly removed and placed in phosphate buffer at room temperature (pH 7.4) containing (mM) NaCl (136.9), KCl (2.6), KH2PO4 (1.47), Na2HPO4 (9.58), and indomethacin (1 × 10^–6 mol/L)). The intraluminal content was rinsed, and the isolated intestine was cut into 1.5–2 cm segments. The preparations were mounted between two platinum electrodes isotonically in a 20 mL organ bath filled with Krebs buffer: composition (mM) NaCl (118), KCl (5.6), MgSO4 (1.18), CaCl2 (2.5), NaH2PO4·H2O (1.28), NaHCO3 (25), glucose (5.55), and indomethacin (3 × 10^–7 mol/L). […] Cumulative concentration–response curve was determined to RAMH or tested agonist (10 nM to 10 mM) at increasing concentrations spaced by 3- or 3.3-fold. The agonist potency is expressed as pD2 value (−log EC50) ± sem.

[3] = target: T2, M3R (Homo sapiens, UniProt P20309); experiment: Intracellular Ca2+ measurement, functional response to ACh, M3R in CHO cells; type: cell-based; settings: antagonism of ACh-induced Ca2+ response, read-out: pKB M3R (converted)
T2 construct: host or cells: CHO cells (whole cells, Fura-2)
Protocol: as §1, §2, §3

T2 sequence (P20309 whole entry): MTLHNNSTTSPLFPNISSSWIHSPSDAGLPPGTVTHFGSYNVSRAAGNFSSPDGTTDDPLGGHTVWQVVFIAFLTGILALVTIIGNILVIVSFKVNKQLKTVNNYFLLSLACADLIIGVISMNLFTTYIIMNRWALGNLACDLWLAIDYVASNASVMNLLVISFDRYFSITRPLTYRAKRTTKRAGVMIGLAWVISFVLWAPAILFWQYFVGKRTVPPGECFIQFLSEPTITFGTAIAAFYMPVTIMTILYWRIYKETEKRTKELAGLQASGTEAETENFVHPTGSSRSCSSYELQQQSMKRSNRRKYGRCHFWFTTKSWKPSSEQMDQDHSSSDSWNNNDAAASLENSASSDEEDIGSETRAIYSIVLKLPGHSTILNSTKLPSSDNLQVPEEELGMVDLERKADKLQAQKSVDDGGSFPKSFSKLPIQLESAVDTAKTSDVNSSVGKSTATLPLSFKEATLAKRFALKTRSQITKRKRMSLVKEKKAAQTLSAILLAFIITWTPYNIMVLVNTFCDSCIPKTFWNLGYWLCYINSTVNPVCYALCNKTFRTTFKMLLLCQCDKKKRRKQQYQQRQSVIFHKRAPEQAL

For `N=C(N)N(CCCCN1CCN(C[C@H]2CC[C@@H](COc3ccccc3)CC2)CC1)Cc1ccccc1` [ADS10227, 1-{4-{4-{[4-(phenoxymethyl)cyclohexyl]methyl}piperazin-1-yl}but-1-yl}-1-(benzyl)guanidine], the Kb ([1]; antagonism of ACh-induced Ca2+ response, CHO cells, read-out: pKB M2R (converted)) was 6.76 nM, the Schild plot slope ([1]; linear Schild plot, competitive interaction, M2R and M3R Ca2+ assays) was 1 and the “shift of the concentration–response curve with or without thioperamide (H3R agonism)” value [2] was “no shifts”. It also gave a Kb [3] of 37.2 nM.
